Experimental data taken from PubChem BioAssay (NCI).
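Grown in 96-well plates, cells were treated for 48 hours with each compound at five concentrations. Insufficient inhibition: endpoint recorded as highest concentration tested. The concentration for full growth arrest is given as TGI.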

What was measured:
Assay in all cases: NCI tumour cell line growth inhibition, 48 h
COLO 205 colon = test system: COLO 205 colon
DLD-1 colon = test system: DLD-1 colon
DMS 114 small cell lung = test system: DMS 114 small cell lung
EKVX NSCLC = test system: EKVX NSCLC
HCT-116 colon = test system: HCT-116 colon
HOP-62 NSCLC = test system: HOP-62 NSCLC
KM20L2 colon = test system: KM20L2 colon
MCF7 breast = test system: MCF7 breast
NCI-H522 lung = test system: NCI-H522 lung
NCI/ADR-RES ovarian = test system: NCI/ADR-RES ovarian
OVCAR-3 ovarian = test system: OVCAR-3 ovarian
RXF 393 renal = test system: RXF 393 renal
SF-268 CNS = test system: SF-268 CNS
SF-295 CNS = test system: SF-295 CNS
SK-MEL-5 melanoma = test system: SK-MEL-5 melanoma
SN12K1 renal = test system: SN12K1 renal
SNB-19 CNS = test system: SNB-19 CNS
U251 CNS = test system: U251 CNS
UACC-62 melanoma = test system: UACC-62 melanoma
UO-31 renal = test system: UO-31 renal

Structure (SMILES)	TGI (COLO 205 colon)	TGI (DLD-1 colon)	TGI (DMS 114 small cell lung)	TGI (EKVX NSCLC)	TGI (HCT-116 colon)	TGI (HOP-62 NSCLC)	TGI (KM20L2 colon)	TGI (MCF7 breast)	TGI (NCI-H522 lung)	TGI (NCI/ADR-RES ovarian)	TGI (OVCAR-3 ovarian)	TGI (RXF 393 renal)	TGI (SF-268 CNS)	TGI (SF-295 CNS)	TGI (SK-MEL-5 melanoma)	TGI (SN12K1 renal)	TGI (SNB-19 CNS)	TGI (U251 CNS)	TGI (UACC-62 melanoma)	TGI (UO-31 renal)
CCN(CC)CCCOC(=O)/C=C/c1c(C)[nH]c(=O)[nH]c1=O	> 625 µM	> 625 µM	> 625 µM	> 625 µM	> 625 µM	> 625 µM	> 625 µM	> 625 µM	> 625 µM	> 625 µM	> 625 µM	> 99.1 µM	> 625 µM	> 625 µM	> 625 µM	> 625 µM	> 625 µM	> 625 µM	> 625 µM	> 625 µM
Cc1c2c(cc3c1[nH]c1ccccc13)C=NCC2	22.4 µM	33.1 µM	12.9 µM	78.9 µM	14.6 µM	56.4 µM	34.5 µM	8.7 µM	41.8 µM	63.3 µM	11.8 µM	16.4 µM	49.6 µM	27.1 µM	12.7 µM	14.4 µM	45.8 µM	47.3 µM	21.5 µM	59.9 µM
CCCCCCCCCCCCCCCCSCC(COC)COP(=O)([O-])OCC[N+](C)(C)C (stereo not given)	3.96 µM	11.2 µM	20.8 µM	28.4 µM	18.7 µM	15.6 µM	–	26.7 µM	10.9 µM	30 µM	17 µM	15.5 µM	20.5 µM	11.6 µM	25.2 µM	24.2 µM	9.6 µM	4.37 µM	19.6 µM	20.3 µM
Nc1nc2c(c(=O)[nH]1)N(C=O)C(CNc1ccc(C(=O)N[C@@H](CCC(=O)O)C(=O)O)cc1)CN2 (stereo not given in full)	> 125 µM	> 125 µM	> 125 µM	> 125 µM	> 125 µM	> 125 µM	> 125 µM	> 125 µM	> 125 µM	> 125 µM	> 125 µM	> 125 µM	> 125 µM	> 125 µM	> 125 µM	> 125 µM	> 125 µM	> 125 µM	> 125 µM	> 125 µM
C/C(=N\NS(=O)(=O)c1ccccc1)c1ccccc1	> 100 µM	> 100 µM	> 100 µM	> 100 µM	> 100 µM	> 100 µM	> 100 µM	> 100 µM	> 100 µM	> 100 µM	> 100 µM	> 100 µM	> 100 µM	> 100 µM	> 100 µM	> 100 µM	> 100 µM	> 100 µM	> 100 µM	> 100 µM
C=C1C[C@@H](O)C[C@@]2(C)C[C@@H]3OC(=O)C(=C)[C@@H]3C[C@H]12	3.02 µM	> 36.6 µM	23.5 µM	–	11.9 µM	53.4 µM	25.4 µM	24.8 µM	21.6 µM	28.4 µM	35.2 µM	20.3 µM	14.4 µM	54.6 µM	11.7 µM	35.7 µM	26.4 µM	39.9 µM	21 µM	31.2 µM
O=C(CC/C=C(/CS(=O)(=O)c1ccccc1)S(=O)(=O)c1ccccc1)c1ccccc1	–	> 100 µM	83.4 µM	> 100 µM	> 100 µM	> 100 µM	> 100 µM	–	49.8 µM	–	> 100 µM	> 100 µM	–	> 100 µM	> 100 µM	–	> 100 µM	> 100 µM	> 100 µM	> 100 µM
Cc1cc(O)c2c(c1O)C(=O)C13C(=C2O)C(=O)C2C(O)C1C1C(O)C3C(=O)C3=C(O)c4c(O)cc(C)c(O)c4C(=O)C321 (stereo not given)	0.112 µM	–	–	1.84 µM	0.168 µM	0.526 µM	> 100 µM	–	0.543 µM	12.2 µM	–	0.295 µM	0.458 µM	0.311 µM	0.364 µM	0.848 µM	–	0.188 µM	–	0.214 µM
CC(=O)NCCC1CN(C(=O)/C=C\C#C[Si](C)(C)C)c2ccccc21 (stereo not given)	> 100 µM	–	–	37.5 µM	–	–	–	> 100 µM	24.3 µM	54.6 µM	84.1 µM	55.3 µM	> 100 µM	> 100 µM	> 100 µM	–	93.7 µM	–	32.4 µM	> 100 µM
